Laboratory results as given in patent US11053219B2, “Substituted pyridines as TYK2 inhibitors” (FronThera U.S. Pharmaceuticals LLC, priority 2018, dated 2021).
pIC50, pKd: −log10 of the molar value. Where two headings read alike, the source gives them in different places.

Columns and labels:
[1] = test system: INFα induced pSTAT5 in human PBMC; assay: INFα induced pSTAT5 in human PBMC; assay type: cell-based; conditions: read-out: p-STAT5 IC50
TYK2 (JH2 domain) = TYK2 (JH2 domain) (Homo sapiens (Human), UniProt P29597); assay: TYK2 JH2 domain binding assay (DiscoverX KINOMEscan); conditions: 11-point 3-fold dilution, duplicate
Sequence of TYK2 (JH2 domain) (P29597 589-875): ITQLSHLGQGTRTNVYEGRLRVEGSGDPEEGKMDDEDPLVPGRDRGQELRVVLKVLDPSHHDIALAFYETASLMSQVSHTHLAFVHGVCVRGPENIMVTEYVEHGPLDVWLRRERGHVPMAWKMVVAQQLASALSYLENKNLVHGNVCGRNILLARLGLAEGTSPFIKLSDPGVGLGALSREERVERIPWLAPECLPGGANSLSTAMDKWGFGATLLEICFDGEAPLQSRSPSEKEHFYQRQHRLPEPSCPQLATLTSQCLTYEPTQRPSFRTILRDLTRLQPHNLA

pKd (TYK2 (JH2 domain))	SMILES	pIC50 ([1]; human PBMC, INFα 5000 units/ml)	also measured
–	[2H]C([2H])([2H])NC(=O)c1nnc(NC(=O)N2CCC2C)cc1Nc1cccc(-c2ncn(C)n2)c1OC (centres unmarked) [Example 164, 4-((2-methoxy-3-(1-methyl-1H-1,2,4-triazol-3-yl)phenyl)amino)-N-(methyl-d3)-6-(2-methylazetidine-1-carboxamido)pyridazine-3-carboxamide]	> 7.00	–
–	COc1c(Nc2cc(NC(=O)[C@@H]3C[C@@H]3F)ncc2C(=O)C2CC2)cccc1-c1ncn(C)n1 [Example 161]	> 7.00	–
–	CCC(=O)c1cnc(Nc2cccc(C#N)n2)cc1Nc1nccc(-c2ncn(C)n2)c1OC [Example 175]	> 7.00	–
–	[2H]C([2H])([2H])NC(=O)c1nnc(NC(=O)N2CC(C#N)C2)cc1Nc1cccc(-c2ncn(C)n2)c1OC [Example 144]	> 7.00	–
8.30 to 9.00	[2H]C([2H])([2H])NC(=O)c1nnc(N2CCCC2)cc1Nc1cccc(-c2ncn(C)n2)c1OC [Example 70]	–	–
–	CCC(=O)c1cnc(Nc2cc(C)n(C)n2)cc1Nc1ncccc1S(C)(=O)=O [Example 179]	> 7.00	–
≥ 9.00	[2H]C([2H])([2H])NC(=O)c1nnc(N2CCN(C(C)COC)C2=O)cc1Nc1cccc(-c2ncn(C)n2)c1OC (centres unmarked) [Example 97]	–	–
≥ 9.00	COc1c(Nc2cc(Cl)nnc2C(=O)C(F)F)cccc1-c1ncn(C)n1 [Example 46]	–	–
–	CCC(=O)c1cnc(N2CCN(C(C)C)C2=O)cc1Nc1cccc(-c2ncn(C)n2)c1OC [Example 115]	> 7.00	–
–	[2H]C([2H])([2H])NC(=O)c1nnc(NC(=O)N2CC(C)(F)C2)cc1Nc1cccc(-c2ncn(C)n2)c1OC [Example 142]	> 7.00	–
–	COc1c(Nc2cc(NC(=O)C3CC3F)ncc2C(=O)C2CC2)cccc1-c1ncn(C)n1 (centres unmarked) [Example 130]	> 7.00	–
–	[2H]C([2H])([2H])NC(=O)c1nnc(NC(=O)N2CC(C(F)F)C2)cc1Nc1cccc(-c2ncn(C)n2)c1OC [Example 157]	> 7.00	–
≥ 9.00	[2H]C([2H])([2H])NC(=O)c1nnc(/C=C/C2CC2)cc1Nc1cccc(-c2ncn(C)n2)c1OC [Example 45]	–	–
–	COc1c(Nc2cc(Nc3ccc(OC4CCOC4)cn3)ncc2C(=O)C2CC2)cccc1-c1ncn(C)n1 (centres unmarked) [Example 124]	> 7.00	–
–	COc1c(Nc2cc(Nc3ccc(C#N)cn3)ncc2C(=O)C2CC2)cccc1-c1ncn(C)n1 [Example 139]	> 7.00	–
–	CS(=O)(=O)c1cccnc1Nc1cc(Nc2cccnn2)ncc1C(=O)C1CC1 [Example 125]	> 7.00	–
–	COc1c(-c2ncn(C)n2)ccnc1Nc1cc(Nc2ccccn2)ncc1C(=O)C1CC1 [Example 141]	> 7.00	–
–	COc1c(Nc2cc(Nc3nc(C)c[nH]3)ncc2C(=O)C2CC2)cccc1-c1ncn(C)n1 [Example 196]	6.00 to 7.00	–
–	CS(=O)(=O)c1cccnc1Nc1cc(Nc2ccccn2)ncc1C(=O)C1CC1 [Example 137]	> 7.00	–
–	COc1c(Nc2cc(Nc3cc(C#N)ccn3)ncc2C(=O)C2CC2)cccc1-c1ncn(C)n1 [Example 136]	> 7.00	–
–	COc1c(Nc2cc(Nc3cc(C)n(C)n3)ncc2C(=O)C2CC2)cccc1-c1ncn(C)n1 [Example 132]	> 7.00	–
–	CNC(=O)c1nnc(NC(=O)N2CC(C)C2)cc1Nc1cccc(-c2ncn(C)n2)c1OC [Example 129]	> 7.00	–

pKd (TYK2 (JH2 domain))	SMILES	pIC50 ([1]; human PBMC, INFα 5000 units/ml)	also measured
–	[2H]C([2H])([2H])Oc1c(Nc2cc(NC(=O)C3CC3)ncc2C(=O)C2CC2)cccc1-c1ncn(C([2H])([2H])[2H])n1 [Example 127]	–	pIC50 ([1]; Homo sapiens, PBMC): > 7.00
–	COc1c(Nc2cc(Nc3ccc(N4CCOCC4=O)cn3)ncc2C(=O)C2CC2)cccc1-c1ncn(C)n1 [Example 149]	> 7.00	–
–	COc1c(Nc2cc(Nc3cnc(C)cn3)ncc2C(=O)C2CC2)cccc1-c1ncn(C)n1 [Example 152]	> 7.00	–
–	COc1c(Nc2cc(Nc3ncccc3F)ncc2C(=O)C2CC2)cccc1-c1ncn(C)n1 [Example 119]	> 7.00	–
–	COc1c(Nc2cc(Nc3ccc(C(C)(C)O)cn3)ncc2C(=O)C2CC2)cccc1-c1ncn(C)n1 [Example 122]	> 7.00	–
–	[2H]C([2H])([2H])NC(=O)c1nnc(NC(=O)N2CC3(CC3)C2)cc1Nc1cccc(-c2ncn(C)n2)c1OC [Example 150]	> 7.00	–
–	CCC(=O)c1cnc(Nc2cccc(C#N)n2)cc1Nc1ncccc1S(C)(=O)=O [Example 176]	> 7.00	–
–	COc1c(Nc2cc(Nc3cccnn3)ncc2C(=O)C2CC2)cccc1-c1ncn(C)n1 [Example 109]	> 7.00	–
–	COc1c(Nc2cc(Nc3ccc(C(C)(C)O)c(F)n3)ncc2C(=O)C2CC2)cccc1-c1ncn(C)n1 [Example 120]	> 7.00	–
8.00 to 8.30	[2H]C([2H])([2H])NC(=O)c1nnc(-n2cccn2)cc1Nc1cccc(-c2ncn(C)n2)c1OC [Example 65]	–	–
–	[2H]C([2H])([2H])NC(=O)c1nnc(NC(=O)N2CC(OC)C2)cc1Nc1cccc(-c2ncn(C)n2)c1OC [Example 158]	> 7.00	–
–	[2H]C([2H])([2H])NC(=O)c1nnc(NC(=O)N2CC(C)(C)C2)cc1Nc1cccc(-c2ncn(C([2H])([2H])[2H])n2)c1OC [Example 156]	> 7.00	–
–	CCC(=O)c1cnc(Nc2cc(C)n(C)n2)cc1Nc1cccc(-c2ncn(C)n2)c1OC [Example 178]	> 7.00	–
–	COc1c(Nc2cc(Nc3ncc[nH]3)ncc2C(=O)C2CC2)cccc1-c1ncn(C)n1 [Example 173]	6.00 to 7.00	–
≥ 9.00	[2H]C([2H])([2H])NC(=O)c1nnc(N2CCN(C(C)C(F)(F)F)C2=O)cc1Nc1cccc(-c2ncn(C)n2)c1OC (centres unmarked) [Example 83]	–	–
–	[2H]C([2H])([2H])CC(=O)c1cnc(NC(=O)C2CC2)cc1Nc1nccc(-c2ncn(C)n2)c1OC [Example 193]	> 7.00	–
–	[2H]C([2H])([2H])CC(=O)c1cnc(NC(=O)C2CC2)cc1Nc1cccc(-c2ncn(C)n2)c1OC [Example 171]	> 7.00	–
8.00 to 8.30	[2H]C([2H])([2H])NC(=O)c1nnc(C=C(C)C)cc1Nc1cccc(-c2ncn(C)n2)c1OC [Example 73]	–	–
≥ 9.00	[2H]C([2H])([2H])NC(=O)c1nnc(N2CC3(COC3)C2)cc1Nc1cccc(-c2ncn(C)n2)c1OC [Example 53]	–	–
–	COc1c(-c2ncn(C)n2)ccnc1Nc1cc(Nc2ccc(C(C)(C)O)c(F)n2)ncc1C(=O)C1CC1 [Example 131]	> 7.00	–
≥ 9.00	[2H]C([2H])([2H])NC(=O)c1nnc(N2CCC3(CCNCC3)C2=O)cc1Nc1cccc(-c2ncn(C)n2)c1OC [Example 75]	–	–
–	[2H]C([2H])([2H])NC(=O)c1nnc(NC(=O)N2CC(F)(C#N)C2)cc1Nc1cccc(-c2ncn(C)n2)c1OC [Example 151]	> 7.00	–

pKd (TYK2 (JH2 domain))	SMILES	pIC50 ([1]; human PBMC, INFα 5000 units/ml)	also measured
–	[2H]C([2H])([2H])CC(=O)c1cnc(Nc2ccc(C(C)(C)O)c(F)n2)cc1Nc1nccc(-c2ncn(C)n2)c1OC [Example 185]	> 7.00	–
–	COc1c(Nc2cc(Nc3nccc(=O)[nH]3)ncc2C(=O)C2CC2)cccc1-c1ncn(C)n1 [Example 135]	5.00 to 6.00	–
≥ 9.00	[2H]C([2H])([2H])NC(=O)c1nnc(N2CCN(CC(C)(C)O)C2=O)cc1Nc1cccc(-c2ncn(C)n2)c1OC [Example 90]	–	–
≥ 9.00	[2H]C([2H])([2H])NC(=O)c1nnc(N2CCN(C(CC)CC)C2=O)cc1Nc1cccc(-c2ncn(C)n2)c1OC [Example 102]	–	–
–	[2H]C([2H])([2H])CC(=O)c1cnc(Nc2ccc(C(C)(C)O)c(F)n2)cc1Nc1ncccc1S(C)(=O)=O [Example 184]	> 7.00	–
–	COc1c(Nc2cc(Nc3cccc(C#N)n3)ncc2C(=O)C2CC2)cccc1-c1ncn(C)n1 [Example 140]	> 7.00	–
–	COc1c(-c2ncn(C)n2)ccnc1Nc1cc(Nc2ccc(C)nn2)ncc1C(=O)C1CC1 [Example 155]	> 7.00	–
–	[2H]C([2H])([2H])CC(=O)c1cnc(Nc2cc(C)nc(C)n2)cc1Nc1ncccc1S(C)(=O)=O [Example 191]	> 7.00	–
–	CCC(=O)c1cnc(NC(=O)C2CC2)cc1Nc1cccc(-c2ncn(C)n2)c1OC [Example 116]	> 7.00	–
–	[2H]C([2H])([2H])NC(=O)c1nnc(NC(=O)N2CC(C)(O)C2)cc1Nc1cccc(-c2ncn(C)n2)c1OC [Example 165]	6.00 to 7.00	–
8.30 to 9.00	[2H]C([2H])([2H])NC(=O)c1nnc(-n2ccc(C)n2)cc1Nc1cccc(-c2ncn(C)n2)c1OC [Example 66]	–	–
–	COc1c(Nc2cc(N[S+]([O-])C(C)(C)C)ncc2C(=O)C2CC2)cccc1-c1ncn(C)n1 (centres unmarked) [Example 128]	–	pIC50 ([1]; Homo sapiens, PBMC): 5.00 to 6.00
–	COc1c(Nc2cc(Nc3ccc(C)nn3)ncc2C(=O)C2CC2)cccc1-c1ncn(C)n1 [Example 113]	> 7.00	–
–	[2H]C([2H])([2H])CC(=O)c1cnc(Nc2ccc(C(C)(C)O)cn2)cc1Nc1ncccc1S(C)(=O)=O [Example 172]	> 7.00	–
8.30 to 9.00	[2H]C([2H])([2H])NC(=O)c1nnc(N2C[C@H](O)CC2=O)cc1Nc1cccc(-c2ncn(C)n2)c1OC [Example 76]	–	–
8.00 to 8.30	Cn1cnc(-c2cccc3c2OCCOCCOc2nnccc2N3)n1 [Example 104]	–	–
≥ 9.00	[2H]C([2H])([2H])NC(=O)c1nnc(N2CCN(C3CC(C)(C)C3)C2=O)cc1Nc1cccc(-c2ncn(C)n2)c1OC [Example 101]	–	–
≥ 9.00	[2H]C([2H])([2H])NC(=O)c1nnc(N2CCN(C(CO)C(C)C)C2=O)cc1Nc1cccc(-c2ncn(C)n2)c1OC (centres unmarked) [Example 92]	–	–
≥ 9.00	[2H]C([2H])([2H])NC(=O)c1nnc(N2CCN(C3CCC3O)C2=O)cc1Nc1cccc(-c2ncn(C)n2)c1OC (centres unmarked) [Example 81]	–	–
8.00 to 8.30	[2H]C([2H])([2H])NC(=O)c1nnc(N2CC(F)(F)C2)cc1Nc1cccc(-c2ncn(C)n2)c1OC [Example 58]	–	–
≥ 9.00	[2H]C([2H])([2H])NC(=O)c1nnc(N2CCN(CCN(CC)CC)C2=O)cc1Nc1cccc(-c2ncn(C)n2)c1OC [Example 93]	–	–

SMILES	pKd (TYK2 (JH2 domain))	pIC50 ([1]; human PBMC, INFα 5000 units/ml)	also measured
COc1c(Nc2cc(N[S@@+]([O-])C(C)(C)C)ncc2C(=O)C2CC2)cccc1-c1ncn(C)n1 [Example 123]	< 8.00	–	–
COc1c(Nc2cc(N[S@+]([O-])C(C)(C)C)ncc2C(=O)C2CC2)cccc1-c1ncn(C)n1 [Example 118]	< 8.00	–	–
COc1c(Nc2cc(N3CCN(C(C)C)C3=O)ncc2C(=O)C2CC2)cccc1-c1ncn(C)n1 [Example 35]	≥ 9.00	–	–
